According to patent US20050101595A1, “N-containing cycloalkyl-substituted amino-thiazole derivatives and pharmaceutical compositions for inhibiting cell proliferation and methods for their use” (PFIZER INC., priority 2003, published 2005):
Structures can show the parent of a compound that is named as a salt. Where two headings read alike, the source gives them in different places.

Legend:
CDK2/Cyclin A = CDK2/Cyclin A (Homo sapiens, UniProt P24941); assay: Inhibition of CDK2/Cyclin A Retinoblastoma Kinase Activity; assay type: biochemical; conditions: for Ki: apparent Ki, CDK2/proteolyzed cyclin A, Rb fragment substrate, 25 μM ATP
Procedure, shortened: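 Human CDK2, baculovirus/insect-cell expressed, complexed with proteolyzed cyclin A (10 nM or 19 nM CDK2) phosphorylates an Rb fragment with 25 μM [32P/33P]ATP at pH 7.4, 30° C, for 60 or 75 minutes under initial-rate conditions. Filter-captured radioactivity is read by phosphorimager; apparent Ki from competitive-inhibition fits.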

[1] = target: human CDK4 and genetically truncated (1-264) cyclin D3 (Homo sapiens, UniProt P11802); assay: Inhibition of CDK4/Cyclin D Retinoblastoma Kinase Activity; assay type: biochemical; conditions: for Ki: apparent Ki, CDK4/truncated cyclin D3, Rb fragment substrate, 25 μM ATP
Procedure, shortened: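 Read-out: 32P/33P incorporation into Rb fragment (386-928) captured on nitrocellulose, phosphorimager. Enzyme 5 nM CDK4/cyclin D3(1-264) from insect cells; ATP 25 μM, pH 7.4, 30 °C, 20 min (60 min for tight binders). Ki from competitive fits.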

HCT-116 cell line = assay: Inhibition of cell growth, tetrazolium salt (MTT) assay; assay type: cell-based; conditions: for HCT-116 % Inhibition at 0.25 μM: 0.25 μM compound; for IC50: Homo sapiens, HCT-116, 120 h, MTT, three to five days, read-out: HCT-116 IC50
Procedure, shortened: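 MTT colorimetric viability: three-to-five-day compound exposure in 0.5% (v/v) DMSO at 37° C, MTT 0.2 mg/mL for the last 4 h, A540 compared with vehicle-treated cells.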

[2] = 0.1 μM compound, HCT-116, Table 4

human CDK4 and genetically truncated (1-264) cyclin D3, sequence (P11802 whole entry, the tested form may be a part): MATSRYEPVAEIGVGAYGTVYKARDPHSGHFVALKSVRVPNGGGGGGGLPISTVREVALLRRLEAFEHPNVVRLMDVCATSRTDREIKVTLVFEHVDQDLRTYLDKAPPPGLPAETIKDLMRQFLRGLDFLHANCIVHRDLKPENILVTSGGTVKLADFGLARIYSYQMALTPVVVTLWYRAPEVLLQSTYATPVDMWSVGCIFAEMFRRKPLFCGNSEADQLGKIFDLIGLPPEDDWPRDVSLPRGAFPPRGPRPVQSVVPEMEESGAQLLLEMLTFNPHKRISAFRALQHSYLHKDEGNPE
human CDK4 and genetically truncated (1-264) cyclin D3, sequence (P30281 1-264 partner): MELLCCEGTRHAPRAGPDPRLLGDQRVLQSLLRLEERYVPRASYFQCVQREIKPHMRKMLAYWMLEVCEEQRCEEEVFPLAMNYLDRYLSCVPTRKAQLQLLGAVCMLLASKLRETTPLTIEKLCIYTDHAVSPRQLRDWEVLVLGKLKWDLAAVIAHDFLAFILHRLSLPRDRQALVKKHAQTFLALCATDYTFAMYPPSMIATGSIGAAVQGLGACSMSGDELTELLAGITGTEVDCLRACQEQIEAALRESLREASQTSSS

## CN(C(=O)N1CCC(Nc2nc(N)c(C(=O)c3c(F)cccc3F)s2)CC1)c1ccccc1 [Example Q1]
CDK2/Cyclin A; 0.03 μM compound, Table 4
  CDK2 % Inhibition at 0.03 μM: −7%
[1]; 0.03 μM compound, Table 4
  CDK4 % Inhibition at 0.03 μM: 31%
HCT-116 cell line; [2]
  HCT-116 % Inhibition at 0.1 μM: 0%
HCT-116 cell line; HCT-116, Table 4
  HCT-116 % Inhibition at 0.25 μM: 38%

## Nc1nc(NC2CCN(C(=O)CCc3ccccc3)CC2)sc1C(=O)c1c(F)cccc1F [Example R174]
CDK2/Cyclin A; at 0.03 μM
  CDK2 % Inhibition at 0.03 μM: 21%
[1]; at 0.03 μM
  CDK4 % Inhibition at 0.03 μM: 42%
HCT-116 cell line; HCT-116 cells, at 0.1 μM
  HCT-116 % Inhibition at 0.1 μM: 0%
HCT-116 cell line; HCT-116 cells
  HCT-116 5 Inhibition at 0.25 μM: 48

## Cc1cc(C)c(C(=O)N2CCC(Nc3nc(N)c(C(=O)c4c(F)cccc4F)s3)CC2)c(C)c1 [Example R127]
CDK2/Cyclin A; at 0.03 μM
  CDK2 % Inhibition at 0.03 μM: 28%
[1]; at 0.03 μM
  CDK4 % Inhibition at 0.03 μM: 20%
HCT-116 cell line; HCT-116 cells, at 0.1 μM
  HCT-116 % Inhibition at 0.1 μM: 0%
HCT-116 cell line; HCT-116 cells
  HCT-116 5 Inhibition at 0.25 μM: 36

## Cc1onc(-c2c(Cl)cccc2Cl)c1C(=O)N1CCC(Nc2nc(N)c(C(=O)c3c(F)cccc3F)s2)CC1 [Example R26]
CDK2/Cyclin A; at 0.03 μM
  CDK2 % Inhibition at 0.03 μM: 17%
[1]; at 0.03 μM
  CDK4 % Inhibition at 0.03 μM: 64%
HCT-116 cell line; HCT-116 cells, at 0.1 μM
  HCT-116 % Inhibition at 0.1 μM: 0%
HCT-116 cell line; HCT-116 cells
  HCT-116 5 Inhibition at 0.25 μM: 46

## Nc1nc(NC2CCN(C(=O)c3cccnc3Sc3ccccc3)CC2)sc1C(=O)c1c(F)cccc1F [Example R41]
CDK2/Cyclin A; at 0.03 μM
  CDK2 % Inhibition at 0.03 μM: 24%
[1]; at 0.03 μM
  CDK4 % Inhibition at 0.03 μM: 32%
HCT-116 cell line; HCT-116 cells, at 0.1 μM
  HCT-116 % Inhibition at 0.1 μM: 0%
HCT-116 cell line; HCT-116 cells
  HCT-116 5 Inhibition at 0.25 μM: 41

## Nc1nc(NC2CCN(S(=O)(=O)CCN3CC=CC3)CC2)sc1C(=O)c1c(F)cccc1F [Example K36, (4-Amino-2-{1-[2-(2,5-dihydro-pyrrol-1-yl)-ethanesulfonyl]-piperidin-4-ylamino}-thiazol-5-yl)-(2,6-difluoro-phenyl)-methanone.]
CDK2/Cyclin A
  Ki: 7.5 nM
[1]
  Ki: 6.6 nM
HCT-116 cell line; first HCT-116 column (c4)
  IC50: 650 nM
HCT-116 cell line; second HCT-116 column (c5)
  IC50: 1900 nM

## Nc1nc(NC2CCN(C(=O)NCc3ccccc3)CC2)sc1C(=O)c1c(F)cccc1F [Example O37]
CDK2/Cyclin A; 0.03 μM compound, Table 2
  CDK2 % Inhibition At 0.03 μM: 40%
[1]; 0.03 μM compound, Table 2
  CDK4 % Inhibition at 0.03 μM: 12%
HCT-116 cell line; HCT-116, Table 2
  HCT-116 % Inhibition at 0.25 μM: 34%

## CCOC(=O)CC(=O)N1CCC(Nc2nc(N)c(C(=O)c3c(F)cccc3F)s2)CC1 [Example Q47]
CDK2/Cyclin A; 0.03 μM compound, Table 4
  CDK2 % Inhibition at 0.03 μM: −13%
[1]; 0.03 μM compound, Table 4
  CDK4 % Inhibition at 0.03 μM: 9%
HCT-116 cell line; [2]
  HCT-116 % Inhibition at 0.1 μM: 0%
HCT-116 cell line; HCT-116, Table 4
  HCT-116 % Inhibition at 0.25 μM: 25%

## COc1ccc(C(=O)N2CCC(Nc3nc(N)c(C(=O)c4c(F)cccc4F)s3)CC2)cc1 [Example Q28]
CDK2/Cyclin A; 0.03 μM compound, Table 4
  CDK2 % Inhibition at 0.03 μM: 53%
[1]; 0.03 μM compound, Table 4
  CDK4 % Inhibition at 0.03 μM: 82%
HCT-116 cell line; [2]
  HCT-116 % Inhibition at 0.1 μM: 6%
HCT-116 cell line; HCT-116, Table 4
  HCT-116 % Inhibition at 0.25 μM: 41%

## Nc1nc(NC2CCN(C(=O)c3cccc4c3-c3ccccc3C4=O)CC2)sc1C(=O)c1c(F)cccc1F [Example Q74]
CDK2/Cyclin A; 0.03 μM compound, Table 4
  CDK2 % Inhibition at 0.03 μM: 2%
[1]; 0.03 μM compound, Table 4
  CDK4 % Inhibition at 0.03 μM: 19%
HCT-116 cell line; [2]
  HCT-116 % Inhibition at 0.1 μM: 3%
HCT-116 cell line; HCT-116, Table 4
  HCT-116 % Inhibition at 0.25 μM: 35%

## Nc1nc(NC2CCN(C(=O)c3ccc(C(F)(F)F)cc3C(F)(F)F)CC2)sc1C(=O)c1c(F)cccc1F [Example R38]
CDK2/Cyclin A; at 0.03 μM
  CDK2 % Inhibition at 0.03 μM: 0%
[1]; at 0.03 μM
  CDK4 % Inhibition at 0.03 μM: 35%
HCT-116 cell line; HCT-116 cells, at 0.1 μM
  HCT-116 % Inhibition at 0.1 μM: 0%
HCT-116 cell line; HCT-116 cells
  HCT-116 5 Inhibition at 0.25 μM: 33

## Nc1nc(NC2CCN(S(=O)(=O)CCSC3CCCC3)CC2)sc1C(=O)c1c(F)cccc1F [Example K38, {4-Amino-2-[1-(2-cyclopentylsulfanyl-ethanesulfonyl)-piperidin-4-ylamino]-thiazol-5-yl}-(2,6-difluoro-phenyl)-methanone Trifluoroacetic Acid Salt.]
CDK2/Cyclin A
  Ki: 7.9 nM
[1]
  Ki: 6.4 nM
HCT-116 cell line; first HCT-116 column (c4)
  IC50: 460 nM
HCT-116 cell line; second HCT-116 column (c5)
  IC50: 3000 nM

## CC(C(=O)N1CCC(Nc2nc(N)c(C(=O)c3c(F)cccc3F)s2)CC1)c1ccccc1 (stereo not shown) [Example R160]
CDK2/Cyclin A; at 0.03 μM
  CDK2 % Inhibition at 0.03 μM: 7%
[1]; at 0.03 μM
  CDK4 % Inhibition at 0.03 μM: 6%
HCT-116 cell line; HCT-116 cells, at 0.1 μM
  HCT-116 % Inhibition at 0.1 μM: 0%
HCT-116 cell line; HCT-116 cells
  HCT-116 5 Inhibition at 0.25 μM: 37

## CC1(C)CN(c2ccc(S(=O)(=O)N3CCC(Nc4nc(N)c(C(=O)c5c(F)cccc5F)s4)CC3)cn2)CCN1 [Example G22, 1-(4-Amino-2-{1-[6-(3,3-dimethyl-piperazin-1-yl)-pyridine-3-sulfonyl]-piperidin-4-ylamino}-thiazol-5-yl)-1-(2,6-difluoro-phenyl)-methanone]
CDK2/Cyclin A
  Ki: 0.66 nM
[1]
  Ki: 0.22 nM
HCT-116 cell line; first HCT-116 column (c4)
  IC50: 210 nM
HCT-116 cell line; second HCT-116 column (c5)
  IC50: 3000 nM
